Experimental data reported in ChEMBL document CHEMBL5727102, “Compounds and methods for inhibiting Cif virulence factor” (2019).

Assay: Biochemical Characterization of Cif Inhibitors: The first step in characterizing the two compounds identified by high throughput screening was to verify that the inhibition was reproducible using fresh preparations. Chemical libraries are often stored for extended periods of time, which can lead to breakdown products contributing to the assay outcome. While the inhibition observed with a fresh …

NC(Cc1cc(I)c(Oc2cc(I)c(O)c(I)c2)c(I)c1)C(=O)O (stereo unspecified) [THYROXINE]
IC50: > 100 µM
